Patent US9938322B2, “β-hairpin peptidomimetics” (priority 2013, dated 2018)
*1 amine or outer side, *2 acyl side, *3 side chain or, on linkers, in order; H or OH if unused. Where a SMILES comes first, the peptide text is derived from it. Side-chain parts run from the residue outwards. [ ]: non-standard residue; d: D form. The star is where a group is joined. Oic = O=C(O)[C@@H]1C[C@@H]2CCCC[C@@H]2N1; Cha = N[C@@H](CC1CCCCC1)C(=O)O; NH(3-picolyl) = c1cncc(CN*)c1; Agp = N=C(N)NC[C@H](N)C(=O)O; Chg = N[C@H](C(=O)O)C1CCCCC1; Tle = CC(C)(C)[C@H](N)C(=O)O; dDab = NCC[C@@H](N)C(=O)O; Orn = NCCC[C@H](N)C(=O)O; Api = NC1(C(=O)O)CCNCC1; Dab = NCC[C@H](N)C(=O)O; Nva = CCC[C@H](N)C(=O)O; Dap = NC[C@H](N)C(=O)O; X4 = CCCCOc1ccc(N*)cc1; CO = O=C([*:1])[*:2]

What follows are compounds tested on human red blood cells (hRBC) (assay: Hemolysis of human red blood cells). Conditions: red cells of human, 1 h, 100.
Format: cell-based
How it was run: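 Washed fresh human erythrocytes (20% v/v, about 0.9×10^9 cells/ml final) incubated with peptide at 100 μg/ml for 1 h at 37° C with shaking. Supernatant OD540 read; hemolysis expressed relative to 2.5% Triton X-100 (100%) and PBS with 0.001% acetic acid (0%).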

Compared with CC(C)C[C@@H]1NC(=O)[C@@H]2CCCN2C(=O)[C@H]2CCCN2C(=O)[C@H](CO)NC(=O)[C@H](C)NC(=O)[C@H](C(C)(C)C)NC(=O)[C@H](CCN)NC(=O)[C@H](Cc2c[nH]c3ccccc23)NC(=O)[C@H](CCN)NC(=O)[C@H](CCN)NC(=O)[C@H](CCCN)NC(=O)[C@H](CCN)NC(=O)[C@H](Cc2ccc(O)cc2)NC(=O)[C@H](CO)NC1=O [compound 24] (cyclo(LSY[Dab][Orn][Dab][Dab]W[Dab][Tle]AS[dP]P)), CC(C)C[C@@H]1NC(=O)[C@@H]2CCCN2C(=O)[C@H]2CCCN2C(=O)[C@H](CO)NC(=O)[C@H]([C@@H](C)O)NC(=O)[C@H](C(C)(C)C)NC(=O)[C@H](CCN)NC(=O)[C@H](Cc2c[nH]c3ccccc23)NC(=O)[C@H](CCN)NC(=O)[C@@H](CCN)NC(=O)[C@H](CCCN)NC(=O)[C@H](CCN)NC(=O)[C@H](Cc2ccc(O)cc2)NC(=O)[C@H]([C@@H](C)O)NC1=O [compound 122] (cyclo(LTY[Dab][Orn][dDab][Dab]W[Dab][Tle]TS[dP]P)) is lower in “Hemolysis at 100 μg/ml” value: 1% for the first, 0% for the second.

CC(C)C[C@@H]1NC(=O)[C@@H]2CCCN2C(=O)[C@H]2CCCN2C(=O)[C@H](CO)NC(=O)[C@H](CC(N)=O)NC(=O)[C@H](C(C)(C)C)NC(=O)[C@H](CCN)NC(=O)[C@H](Cc2c[nH]c3ccccc23)NC(=O)[C@H](CCN)NC(=O)[C@@H](CCN)NC(=O)[C@H](CCCN)NC(=O)[C@H](CCN)NC(=O)[C@H](Cc2ccc(O)cc2)NC(=O)[C@H](CC(N)=O)NC1=O [compound 121] (cyclo(LNY[Dab][Orn][dDab][Dab]W[Dab][Tle]NS[dP]P)) and CC[C@H](C)[C@@H]1NC(=O)[C@@H]2CCCN2C(=O)[C@H]2CCCN2C(=O)[C@H](CO)NC(=O)[C@H](C)NC(=O)[C@H](C(C)(C)C)NC(=O)[C@H](CCN)NC(=O)[C@H](Cc2c[nH]c3ccccc23)NC(=O)[C@H](CCN)NC(=O)[C@@H](CCN)NC(=O)[C@H](CCCN)NC(=O)[C@H](CCN)NC(=O)[C@H](Cc2ccc(O)cc2)NC(=O)[C@H](C)NC1=O [compound 125] (cyclo(IAY[Dab][Orn][dDab][Dab]W[Dab][Tle]AS[dP]P)) are the same in “Hemolysis at 100 μg/ml” value: 0% for the first, 0% for the second.

Going from COC[C@@H]1NC(=O)[C@H](C(C)(C)C)NC(=O)[C@H](CCN)NC(=O)[C@H](Cc2c[nH]c3ccccc23)NC(=O)[C@H](CCN)NC(=O)[C@@H](CCN)NC(=O)[C@H](CCCN)NC(=O)[C@H](CCN)NC(=O)[C@H](CC2CCCCC2)NC(=O)[C@H](C)NC(=O)[C@H](Cc2c[nH]c3ccccc23)NC(=O)[C@@H]2C[C@@H]3CCCC[C@@H]3N2C(=O)[C@H]2CCCN2C(=O)[C@H](CO)NC1=O [Ex. 54, cyclo(-Trp-Ala-Cha-Dab-Orn-^DDab-Dab-Trp-Dab-tBuGly-Ser(Me)-Ser-^DPro-Oic-)] (cyclo(A[Cha][Dab][Orn][dDab][Dab]W[Dab][Tle]S(Me)S[dP][Oic]W)) to C[C@@H]1NC(=O)[C@H](Cc2c[nH]c3ccccc23)NC(=O)[C@@H]2CCCN2C(=O)[C@H]2CCCN2C(=O)[C@H](CO)NC(=O)[C@H](CNC(=N)N)NC(=O)[C@H](C(C)(C)C)NC(=O)[C@H](CCN)NC(=O)[C@H](Cc2c[nH]c3ccccc23)NC(=O)[C@H](CCN)NC(=O)[C@@H](CCN)NC(=O)[C@H](CCCN)NC(=O)[C@H](CCN)NC(=O)[C@H](CC2CCCCC2)NC1=O [compound 23] (cyclo(WA[Cha][Dab][Orn][dDab][Dab]W[Dab][Tle][Agp]S[dP]P)), the “Hemolysis at 100 μg/ml” value falls from 3% to 1.7%.

Going from CC(C)C[C@@H]1NC(=O)[C@@H]2CCCN2C(=O)[C@H]2CCCN2C(=O)[C@H](CO)NC(=O)[C@H](C)NC(=O)[C@H](C2CCCCC2)NC(=O)[C@H](CCN)NC(=O)[C@H](Cc2c[nH]c3ccccc23)NC(=O)[C@H](CCN)NC(=O)[C@@H](CCN)NC(=O)[C@H](CCCN)NC(=O)[C@H](CCN)NC(=O)[C@H](Cc2ccc(O)cc2)NC(=O)[C@H](CO)NC1=O [compound 29] (cyclo(LSY[Dab][Orn][dDab][Dab]W[Dab][Chg]AS[dP]P)) to CC(C)C[C@@H]1NC(=O)[C@@H]2CCCN2C(=O)[C@H]2CCCN2C(=O)[C@H](CO)NC(=O)[C@H](C)NC(=O)[C@H](C(C)(C)C)NC(=O)[C@H](CCN)NC(=O)[C@H](Cc2c[nH]c3ccccc23)NC(=O)[C@H](CCN)NC(=O)[C@@H](CCN)NC(=O)[C@H](CCCN)NC(=O)[C@H](CCN)NC(=O)[C@H](CC2CCCCC2)NC(=O)[C@H](CNC(=O)NCc2cccnc2)NC1=O [compound 39] (cyclo(L[Dap]([CO-NH(3-picolyl)])[Cha][Dab][Orn][dDab][Dab]W[Dab][Tle]AS[dP]P)), the “Hemolysis at 100 μg/ml” value falls from 6% to 3%.

CCCCOc1ccc(NC(=O)NC[C@@H]2NC(=O)[C@H](CC(C)C)NC(=O)[C@@H]3CCCN3C(=O)[C@H]3CCCN3C(=O)[C@H](CO)NC(=O)[C@H](C)NC(=O)[C@H](C(C)(C)C)NC(=O)[C@H](CCN)NC(=O)[C@H](Cc3c[nH]c4ccccc34)NC(=O)[C@H](CCN)NC(=O)[C@@H](CCN)NC(=O)[C@H](CCCN)NC(=O)[C@H](CCN)NC(=O)[C@H](CC3CCCCC3)NC2=O)cc1 [compound 41] (cyclo(L[Dap]([CO-X4])[Cha][Dab][Orn][dDab][Dab]W[Dab][Tle]AS[dP]P)) and C[C@@H]1NC(=O)[C@H](C(C)(C)C)NC(=O)[C@H](CCN)NC(=O)[C@H](Cc2c[nH]c3ccccc23)NC(=O)[C@H](CCN)NC(=O)[C@@H](CCN)NC(=O)[C@H](CCCN)NC(=O)[C@H](CCN)NC(=O)[C@H](CC2CCCCC2)NC(=O)[C@H](CNC(=O)NCc2cccnc2)NC(=O)[C@H](Cc2c[nH]c3ccccc23)NC(=O)[C@@H]2CCCN2C(=O)[C@H]2CCCN2C(=O)[C@H](CO)NC1=O [compound 16] (cyclo(W[Dap]([CO-NH(3-picolyl)])[Cha][Dab][Orn][dDab][Dab]W[Dab][Tle]AS[dP]P)) are the same in “Hemolysis at 100 μg/ml” value: 7% for the first, 7% for the second.

C[C@@H]1NC(=O)[C@H](C(C)(C)C)NC(=O)[C@H](CCN)NC(=O)[C@H](Cc2c[nH]c3ccccc23)NC(=O)[C@H](CCN)NC(=O)C2(CCNCC2)NC(=O)[C@H](CCCN)NC(=O)[C@H](CCN)NC(=O)[C@H](CC2CCCCC2)NC(=O)[C@H](CN)NC(=O)[C@H](Cc2c[nH]c3ccccc23)NC(=O)[C@@H]2CCCN2C(=O)[C@H]2CCCN2C(=O)[C@H](CO)NC1=O [Ex. 62] (cyclo(W[Dap][Cha][Dab][Orn][Api][Dab]W[Dab][Tle]AS[dP]P)) and CCC[C@@H]1NC(=O)[C@H](CCN)NC(=O)[C@H](Cc2c[nH]c3ccccc23)NC(=O)[C@H](CCN)NC(=O)[C@@H](CCN)NC(=O)[C@H](CCCN)NC(=O)[C@H](CCN)NC(=O)[C@H](C(C)(C)C)NC(=O)[C@H](CO)NC(=O)[C@H](Cc2c[nH]c3ccccc23)NC(=O)[C@@H]2CCCN2C(=O)[C@H]2CCCN2C(=O)[C@H](CO)NC(=O)[C@H](C)NC1=O [compound 67] (cyclo(WS[Tle][Dab][Orn][dDab][Dab]W[Dab][Nva]AS[dP]P)) are the same in “Hemolysis at 100 μg/ml” value: 1% for the first, 1% for the second.

With C[C@@H]1NC(=O)[C@H](Cc2c[nH]c3ccccc23)NC(=O)[C@@H]2CCCN2C(=O)[C@H]2CCCN2C(=O)[C@H](CO)NC(=O)[C@H](C)NC(=O)[C@H](C(C)(C)C)NC(=O)[C@H](CCN)NC(=O)[C@H](Cc2c[nH]c3ccccc23)NC(=O)[C@H](CCN)NC(=O)[C@@H](CCN)NC(=O)[C@H](CCCCN)NC(=O)[C@H](CCN)NC(=O)[C@H](Cc2ccc(O)cc2)NC1=O [compound 78] (cyclo(WAY[Dab]K[dDab][Dab]W[Dab][Tle]AS[dP]P)) the “Hemolysis at 100 μg/ml” value was 1%.
